From ChEMBL document CHEMBL3046817, “The synthesis and investigation of the antimicrobial activity of some new phenylselanyl-1-(toluene-4-sulfonyl)-1H-tetrazole derivatives” (2009)
The source made the active and inactive calls. The calls are words filed in the database; no cut-off is given here.

Columns and labels:
Yersinia enterocolitica [1] = assay: Antimicrobial activity against Yersinia enterocolitica ATCC 1501 at 25 ug/disk measured after overnight incubation by disk diffusion method; format: functional; conditions: for zone of inhibition at 25 µg/disc: read-out: IZ
Staphylococcus aureus [2] = assay: Antimicrobial activity against Staphylococcus aureus ATCC 25923 at 25 ug/disk measured after overnight incubation by disk diffusion method; format: functional; conditions: for zone of inhibition at 25 µg/disc: read-out: IZ
Salmonella enteritidis [3] = assay: Antimicrobial activity against Salmonella enterica subsp. enterica serovar Enteritidis ATCC 13076 at 25 ug/disk measured after overnight incubation by disk diffusion method; format: functional; conditions: read-out: IZ
Pseudomonas aeruginosa [4] = assay: Antimicrobial activity against Pseudomonas aeruginosa ATCC 27853 at 25 ug/disk measured after overnight incubation by disk diffusion method; format: functional
Listeria monocytogenes [5] = assay: Antimicrobial activity against Listeria monocytogenes ATCC 7644 at 25 ug/disk measured after overnight incubation by disk diffusion method; format: functional
Escherichia coli [6] = assay: Antimicrobial activity against Escherichia coli ATCC 11230 at 25 ug/disk measured after overnight incubation by disk diffusion method; format: functional; conditions: read-out: IZ
Bacillus cereus [7] = assay: Antimicrobial activity against Bacillus cereus RSKK 863 at 25 ug/disk measured after overnight incubation by disk diffusion method; format: functional; conditions: for zone of inhibition at 25 µg/disc: read-out: IZ
Staphylococcus aureus [8] = assay: Antimicrobial activity against Staphylococcus aureus ATCC 25923 measured after overnight incubation by disk diffusion method; format: functional, organism-based
Yersinia enterocolitica [9] = assay: Antimicrobial activity against Yersinia enterocolitica ATCC 1501 measured after overnight incubation by disk diffusion method; format: functional
Salmonella enteritidis [10] = assay: Antimicrobial activity against Salmonella enterica subsp. enterica serovar Enteritidis ATCC 13076 measured after overnight incubation by disk diffusion method; format: functional
Pseudomonas aeruginosa [11] = assay: Antimicrobial activity against Pseudomonas aeruginosa ATCC 27853 measured after overnight incubation by disk diffusion method; format: functional
Listeria monocytogenes [12] = assay: Antimicrobial activity against Listeria monocytogenes ATCC 7644 measured after overnight incubation by disk diffusion method; format: functional
Bacillus cereus [13] = assay: Antimicrobial activity against Bacillus cereus RSKK 863 measured after overnight incubation by disk diffusion method; format: functional, organism-based
Escherichia coli [14] = conditions: ATCC 11230
Description: Antimicrobial activity against Escherichia coli ATCC 11230 measured after overnight incubation by disk diffusion method

| Structure (SMILES) | inhibition zone (IZ) (Yersinia enterocolitica [1]) | zone of inhibition at 25 µg/disc (Staphylococcus aureus [2]) [mm] | zone of inhibition at 25 µg/disc (Salmonella enteritidis [3]) [mm] | inhibition zone (IZ) (Pseudomonas aeruginosa [4]) | inhibition zone (IZ) (Listeria monocytogenes [5]) | zone of inhibition at 25 µg/disc (Escherichia coli [6]) [mm] | inhibition zone (IZ) (Bacillus cereus [7]) | zone of inhibition at 25 µg/disc (Bacillus cereus [7]) [mm] | zone of inhibition at 25 µg/disc (Yersinia enterocolitica [1]) [mm] | zone of inhibition at 25 µg/disc (Pseudomonas aeruginosa [4]; read-out: IZ) [mm] | inhibition zone (IZ) (Staphylococcus aureus [2]) | zone of inhibition at 25 µg/disc (Listeria monocytogenes [5]; read-out: IZ) [mm] | inhibition zone (IZ) (Staphylococcus aureus [8]) | inhibition zone (IZ) (Yersinia enterocolitica [9]) | inhibition zone (IZ) (Salmonella enteritidis [10]) [mm] | inhibition zone (IZ) (Pseudomonas aeruginosa [11]) [mm] | inhibition zone (IZ) (Listeria monocytogenes [12]) [mm] | inhibition zone (IZ) (Bacillus cereus [13]) | IZ (Escherichia coli [14]) |
| --- | --- | --- | --- | --- | --- | --- | --- | --- | --- | --- | --- | --- | --- | --- | --- | --- | --- | --- | --- |
| Cc1ccc(S(=O)(=O)n2nnnc2[Se]c2ccc(I)cc2)cc1 | inactive | 8.2 | 5.8 | inactive | inactive | 3.2 | inactive |  |  |  |  |  |  |  |  |  |  |  |  |
| Cc1ccc(S(=O)(=O)n2nnnc2[Se]c2ccccc2C)cc1 | inactive | 5.2 | 2.8 | inactive | inactive | 5.4 |  | 4.4 |  |  |  |  |  |  |  |  |  |  |  |
| Cc1ccc(S(=O)(=O)n2nnnc2[Se]c2ccc(Cl)cc2)cc1 |  | 4.8 | 7.8 | inactive | inactive | 3.2 | inactive |  | 3.4 |  |  |  |  |  |  |  |  |  |  |
| Cc1ccc(S(=O)(=O)n2nnnc2[Se]c2ccccc2Cl)cc1 |  | 4.2 | 7 |  | inactive | 7.4 |  | 3.2 | 5.6 | 4.4 |  |  |  |  |  |  |  |  |  |
| Cc1ccc(S(=O)(=O)n2nnnc2[Se]c2ccc(Br)cc2)cc1 | inactive | 6.2 | 8.2 | inactive | inactive | 5.4 | inactive |  |  |  |  |  |  |  |  |  |  |  |  |
| Cc1ccc([Se]c2nnnn2S(=O)(=O)c2ccc(C)cc2)cc1 | inactive |  | 3.2 | inactive |  | 4.6 |  | 2.8 |  |  | inactive | 5 |  |  |  |  |  |  |  |
| Cc1ccnc(NS(=O)(=O)c2ccc(N)cc2)n1 [SULFAMERAZINE] |  |  |  |  |  |  |  |  |  |  |  |  | inactive | 6.1 mm | 6.6 | 4.4 | 5.1 | inactive | inactive |
| Cc1cc(NS(=O)(=O)c2ccc(N)cc2)no1 [SULFAMETHOXAZOLE] |  |  |  |  |  |  |  |  |  |  |  |  | inactive | inactive | 7.4 | 5.5 | 10.9 | inactive |  |
